{"source": "ChEMBL document CHEMBL1146373", "about": "“Free-radical-scavenging effect of carbazole derivatives on AAPH-induced hemolysis of human erythrocytes” (2007)", "type_in_all_cases": "functional", "key": {"[1]": {"system": "Erythrocyte", "test": "Inhibition of AAPH-induced hemolysis in human erythrocytes assessed as hemolysis time at 6.17 uM"}, "[2]": {"system": "Erythrocyte", "test": "Inhibition of AAPH-induced hemolysis in human erythrocytes assessed as hemolysis time at 9.26 uM"}, "[3]": {"system": "Erythrocyte", "test": "Inhibition of AAPH-induced hemolysis in human erythrocytes assessed as hemolysis time at 12.3 uM"}, "[4]": {"system": "Erythrocyte", "test": "Inhibition of AAPH-induced hemolysis in human erythrocytes assessed as hemolysis time at 15.4 uM"}, "[5]": {"system": "Erythrocyte", "test": "Inhibition of AAPH-induced hemolysis in human erythrocytes assessed as hemolysis time at 20.6 uM"}, "[6]": {"system": "Erythrocyte", "test": "Inhibition of AAPH-induced hemolysis in human erythrocytes assessed as hemolysis inhibition time at 6.17 uM"}, "[7]": {"system": "Erythrocyte", "test": "Inhibition of AAPH-induced hemolysis in human erythrocytes assessed as hemolysis inhibition time at 9.26 uM"}, "[8]": {"system": "Erythrocyte", "test": "Inhibition of AAPH-induced hemolysis in human erythrocytes assessed as hemolysis inhibition time at 12.3 uM"}, "[9]": {"system": "Erythrocyte", "test": "Inhibition of AAPH-induced hemolysis in human erythrocytes assessed as hemolysis inhibition time at 15.4 uM"}, "[10]": {"system": "Erythrocyte", "test": "Inhibition of AAPH-induced hemolysis in human erythrocytes assessed as hemolysis inhibition time at 20.6 uM"}, "[11]": {"system": "Erythrocyte", "test": "Inhibition of AAPH-induced hemolysis in human erythrocytes assessed as hemolysis time at 3 uM"}, "[12]": {"system": "Erythrocyte", "test": "Inhibition of AAPH-induced hemolysis in human erythrocytes assessed as hemolysis time at 6 uM"}, "[13]": {"system": "Erythrocyte", "test": "Inhibition of AAPH-induced hemolysis in human erythrocytes assessed as hemolysis time at 9 uM"}, "[14]": {"system": "Erythrocyte", "test": "Inhibition of AAPH-induced hemolysis in human erythrocytes assessed as hemolysis time at 12 uM"}, "[15]": {"system": "Erythrocyte", "test": "Inhibition of AAPH-induced hemolysis in human erythrocytes assessed as hemolysis time at 15 uM"}, "[16]": {"system": "Erythrocyte", "test": "Inhibition of AAPH-induced hemolysis in human erythrocytes assessed as hemolysis inhibition time at 3 uM"}, "[17]": {"system": "Erythrocyte", "test": "Inhibition of AAPH-induced hemolysis in human erythrocytes assessed as hemolysis inhibition time at 6 uM"}, "[18]": {"system": "Erythrocyte", "test": "Inhibition of AAPH-induced hemolysis in human erythrocytes assessed as hemolysis inhibition time at 9 uM"}, "[19]": {"system": "Erythrocyte", "test": "Inhibition of AAPH-induced hemolysis in human erythrocytes assessed as hemolysis inhibition time at 12 uM"}, "[20]": {"system": "Erythrocyte", "test": "Inhibition of AAPH-induced hemolysis in human erythrocytes assessed as hemolysis inhibition time at 15 uM"}, "[21]": {"system": "Erythrocyte", "test": "Inhibition of AAPH-induced hemolysis in human erythrocytes assessed as hemolysis time at 12.4 uM"}, "[22]": {"system": "Erythrocyte", "test": "Inhibition of AAPH-induced hemolysis in human erythrocytes assessed as hemolysis time at 8.26 uM"}, "[23]": {"system": "Erythrocyte", "test": "Inhibition of AAPH-induced hemolysis in human erythrocytes assessed as hemolysis time at 16.5 uM"}, "[24]": {"system": "Erythrocyte", "test": "Inhibition of AAPH-induced hemolysis in human erythrocytes assessed as hemolysis time at 20.7 uM"}, "[25]": {"system": "Erythrocyte", "test": "Inhibition of AAPH-induced hemolysis in human erythrocytes assessed as hemolysis time at 24.8 uM"}, "[26]": {"system": "Erythrocyte", "test": "Inhibition of AAPH-induced hemolysis in human erythrocytes assessed as hemolysis inhibition time at 12.4 uM"}, "[27]": {"system": "Erythrocyte", "test": "Inhibition of AAPH-induced hemolysis in human erythrocytes assessed as hemolysis inhibition time at 8.26 uM"}, "[28]": {"system": "Erythrocyte", "test": "Inhibition of AAPH-induced hemolysis in human erythrocytes assessed as hemolysis inhibition time at 16.5 uM"}, "[29]": {"system": "Erythrocyte", "test": "Inhibition of AAPH-induced hemolysis in human erythrocytes assessed as hemolysis inhibition time at 20.7 uM"}, "[30]": {"system": "Erythrocyte", "test": "Inhibition of AAPH-induced hemolysis in human erythrocytes assessed as hemolysis inhibition time at 24.8 uM"}, "[31]": {"system": "Erythrocyte", "test": "Inhibition of AAPH-induced hemolysis in human erythrocytes assessed as hemolysis time at 50.8 uM"}, "[32]": {"system": "Erythrocyte", "test": "Inhibition of AAPH-induced hemolysis in human erythrocytes assessed as hemolysis time at 20.3 uM"}, "[33]": {"system": "Erythrocyte", "test": "Inhibition of AAPH-induced hemolysis in human erythrocytes assessed as hemolysis time at 30.5 uM"}, "[34]": {"system": "Erythrocyte", "test": "Inhibition of AAPH-induced hemolysis in human erythrocytes assessed as hemolysis time at 37.3 uM"}, "[35]": {"system": "Erythrocyte", "test": "Inhibition of AAPH-induced hemolysis in human erythrocytes assessed as hemolysis time at 61 uM"}, "[36]": {"system": "Erythrocyte", "test": "Inhibition of AAPH-induced hemolysis in human erythrocytes assessed as hemolysis inhibition time at 20.3 uM"}, "[37]": {"system": "Erythrocyte", "test": "Inhibition of AAPH-induced hemolysis in human erythrocytes assessed as hemolysis inhibition time at 30.5 uM"}, "[38]": {"system": "Erythrocyte", "test": "Inhibition of AAPH-induced hemolysis in human erythrocytes assessed as hemolysis inhibition time at 37.3 uM"}, "[39]": {"system": "Erythrocyte", "test": "Inhibition of AAPH-induced hemolysis in human erythrocytes assessed as hemolysis inhibition time at 50.8 uM"}, "[40]": {"system": "Erythrocyte", "test": "Inhibition of AAPH-induced hemolysis in human erythrocytes assessed as hemolysis inhibition time at 61 uM"}, "[41]": {"system": "Erythrocyte", "test": "Inhibition of AAPH-induced hemolysis in human erythrocytes assessed as hemolysis time at 10.8 uM"}, "[42]": {"system": "Erythrocyte", "test": "Inhibition of AAPH-induced hemolysis in human erythrocytes assessed as hemolysis time at 13.9 uM"}, "[43]": {"system": "Erythrocyte", "test": "Inhibition of AAPH-induced hemolysis in human erythrocytes assessed as hemolysis time at 9.27 uM"}, "[44]": {"system": "Erythrocyte", "test": "Inhibition of AAPH-induced hemolysis in human erythrocytes assessed as hemolysis time at 15.5 uM"}, "[45]": {"system": "Erythrocyte", "test": "Inhibition of AAPH-induced hemolysis in human erythrocytes assessed as hemolysis inhibition time at 15.5 uM"}, "[46]": {"system": "Erythrocyte", "test": "Inhibition of AAPH-induced hemolysis in human erythrocytes assessed as hemolysis inhibition time at 9.27 uM"}, "[47]": {"system": "Erythrocyte", "test": "Inhibition of AAPH-induced hemolysis in human erythrocytes assessed as hemolysis inhibition time at 10.8 uM"}, "[48]": {"system": "Erythrocyte", "test": "Inhibition of AAPH-induced hemolysis in human erythrocytes assessed as hemolysis inhibition time at 13.9 uM"}}, "data": [{"smiles": "c1ccc2c(c1)[nH]c1ccccc12", "note": "[CARBAZOLE]", "values": [{"measurement": "Activity", "setting": "[1]", "result": 265, "unit": "min"}, {"measurement": "Activity", "setting": "[2]", "result": 298, "unit": "min"}, {"measurement": "Activity", "setting": "[3]", "result": 327, "unit": "min"}, {"measurement": "Activity", "setting": "[4]", "result": 364, "unit": "min"}, {"measurement": "Activity", "setting": "[5]", "result": 406, "unit": "min"}, {"measurement": "Activity", "setting": "[6]", "result": 68, "unit": "min"}, {"measurement": "Activity", "setting": "[7]", "result": 101, "unit": "min"}, {"measurement": "Activity", "setting": "[8]", "result": 130, "unit": "min"}, {"measurement": "Activity", "setting": "[9]", "result": 167, "unit": "min"}, {"measurement": "Activity", "setting": "[10]", "result": 209, "unit": "min"}]}, {"smiles": "c1ccc(Nc2ccccc2)cc1", "note": "[DIPHENYLAMINE]", "values": [{"measurement": "Activity", "setting": "[11]", "result": 257, "unit": "min"}, {"measurement": "Activity", "setting": "[12]", "result": 346, "unit": "min"}, {"measurement": "Activity", "setting": "[13]", "result": 400, "unit": "min"}, {"measurement": "Activity", "setting": "[14]", "result": 458, "unit": "min"}, {"measurement": "Activity", "setting": "[15]", "result": 489, "unit": "min"}, {"measurement": "Activity", "setting": "[16]", "result": 24, "unit": "min"}, {"measurement": "Activity", "setting": "[17]", "result": 113, "unit": "min"}, {"measurement": "Activity", "setting": "[18]", "result": 167, "unit": "min"}, {"measurement": "Activity", "setting": "[19]", "result": 225, "unit": "min"}, {"measurement": "Activity", "setting": "[20]", "result": 256, "unit": "min"}]}, {"smiles": "C1=Cc2ccccc2Nc2ccccc21", "note": "[IMINOSTILBENE]", "values": [{"measurement": "Activity", "setting": "[21]", "result": 297, "unit": "min"}, {"measurement": "Activity", "setting": "[22]", "result": 264, "unit": "min"}, {"measurement": "Activity", "setting": "[23]", "result": 333, "unit": "min"}, {"measurement": "Activity", "setting": "[24]", "result": 365, "unit": "min"}, {"measurement": "Activity", "setting": "[25]", "result": 381, "unit": "min"}, {"measurement": "Activity", "setting": "[26]", "result": 85, "unit": "min"}, {"measurement": "Activity", "setting": "[27]", "result": 52, "unit": "min"}, {"measurement": "Activity", "setting": "[28]", "result": 121, "unit": "min"}, {"measurement": "Activity", "setting": "[29]", "result": 153, "unit": "min"}, {"measurement": "Activity", "setting": "[30]", "result": 169, "unit": "min"}]}, {"smiles": "c1ccc2c(c1)Nc1ccccc1S2", "note": "[PHENOTHIAZINE]", "values": [{"measurement": "Activity", "setting": "[31]", "result": 408, "unit": "min"}, {"measurement": "Activity", "setting": "[32]", "result": 275, "unit": "min"}, {"measurement": "Activity", "setting": "[33]", "result": 330, "unit": "min"}, {"measurement": "Activity", "setting": "[34]", "result": 368, "unit": "min"}, {"measurement": "Activity", "setting": "[35]", "result": 451, "unit": "min"}, {"measurement": "Activity", "setting": "[36]", "result": 64, "unit": "min"}, {"measurement": "Activity", "setting": "[37]", "result": 119, "unit": "min"}, {"measurement": "Activity", "setting": "[38]", "result": 157, "unit": "min"}, {"measurement": "Activity", "setting": "[39]", "result": 197, "unit": "min"}, {"measurement": "Activity", "setting": "[40]", "result": 240, "unit": "min"}]}, {"smiles": "c1ccc2c(c1)Nc1ccccc1O2", "note": "[PHENOXAZINE]", "values": [{"measurement": "Activity", "setting": "[41]", "result": 379, "unit": "min"}, {"measurement": "Activity", "setting": "[42]", "result": 461, "unit": "min"}, {"measurement": "Activity", "setting": "[21]", "result": 425, "unit": "min"}, {"measurement": "Activity", "setting": "[43]", "result": 345, "unit": "min"}, {"measurement": "Activity", "setting": "[44]", "result": 509, "unit": "min"}, {"measurement": "Activity", "setting": "[45]", "result": 322, "unit": "min"}, {"measurement": "Activity", "setting": "[46]", "result": 158, "unit": "min"}, {"measurement": "Activity", "setting": "[47]", "result": 192, "unit": "min"}, {"measurement": "Activity", "setting": "[26]", "result": 238, "unit": "min"}, {"measurement": "Activity", "setting": "[48]", "result": 274, "unit": "min"}]}]}
